As to `COC(=O)c1cc(C(C)C)sc1NC(=O)Nc1ccc(C)s1` [Example 30, 5-Isopropyl-2-[3-(5-methyl-thiophen-2-yl)-ureido]-thiophene-3-carboxylic acid methyl ester], the melting point lay within 70 to 73 °C.

In turn, `COC(=O)c1cc(C(C)C)sc1NC(=O)Nc1ccc(C)cc1` [Example 29, 5-Isopropyl-2-(3-p-tolyl-ureido)-thiophene-3-carboxylic acid methyl ester] registered a melting point of 49 to 51 °C.

As to `CCc1nnc(NC(=O)Nc2sc(C(C)(C)C)cc2C(=O)OC)s1` [Example 28, 5-tert-Butyl-2-(3-(5-ethyl-[1,3,4]thiadiazol-2-yl)-ureido)-thiophene-3-carboxylic acid methyl ester], the melting point is 206 to 208 °C.

Regarding `COC(=O)c1cc(C(C)(C)C)sc1NC(=O)Nc1ccccc1` [Example 27, 5-tert-Butyl-2-(3-phenyl-ureido)-thiophene-3-carboxylic acid methyl ester], the melting point fell in the range of 80 to 82 °C.

Compound `COC(=O)c1sc(C(C)C)cc1NC(=O)Nc1ccc(C)cc1` [Example 1, 5-Isopropyl-3-(3-p-tolyl-ureido)-thiophene-2-carboxylic acid methyl ester] displayed a melting point of 93 to 95 °C.

The compound `COC(=O)c1cc(C(C)(C)C)sc1NC(=O)Nc1ccc(C)cc1` [Example 26, 5-tert-Butyl-2-(3-p-tolyl-ureido)-thiophene-3-carboxylic acid methyl ester] returned a melting point of 109 to 111 °C.

The melting point is the temperature of the solid-liquid transition.

The record behind these values is patent publication US20050256174A1, “Raf kinase inhibitors” (priority 1998, published 2005).
